{"source": "patent US20230416329A1", "about": "“A PEPTIDE WITH DISULFIDE BONDS AND INHIBITORY ACTIVITY AGAINST SERINE PROTEASES, DERIVED HYBRID PEPTIDES THEREOF, AND USES THEREOF” (INSTITUTE OF MATERIA MEDICA , CHINESE ACADEMY OF MEDICAL …, priority 2020, published 2023)", "key": {"[1]": {"system": "normal ICR mice", "assay": "In vivo hypoglycemic activity of GLP-1 analogues, subcutaneous administration, oral glucose loading", "set-up": "species or system mouse", "details": "normal ICR mice, 1 μmol/kg s.c., glucose 2 g/kg by gavage", "experimental": "FIG. 21. In vivo hypoglycemic activities of GLP-1 analogues by subcutaneous administration. Normal ICR mice were subcutaneously injected with GLP-1 and its analogues or corresponding volumes of saline (1.0 μmol/kg, n=10). After 30 min, glucose solution (2 g/kg) was administered by gavage, and blood was collected from the tail tip at 30, 60, and 120 min after glucose administration. Blood glucose was measured using glucose oxidase method, and blood glucose values and area under the blood glucose curve (AUC) were calculated at each timepoint.\nThe day before the experiment, all of the animals were fasted for 15-16 hours with water ad libitum. On the day of the experiment, the animals were randomly divided according to body weight (n=10). Firstly, the blood was collected from the tail tip at 0 hour, and then the animals were administered subcutaneously with GLP-1 analog (SEQ ID NOs: 194-201, 1 μmol/kg) or saline. After 30 minutes, the animals were administered by gavage with glucose solution (2 g/kg), and the blood was collected from the tail tip at 30, 60, and 120 minutes later. Blood glucose was measured using glucose oxidase method. The blood glucose and area under the blood glucose-time curve (AUC) were calculated."}, "[2]": {"target": "T1, interaction of PCSK9-LDLR (Homo sapiens, UniProt Q8NBP7)", "T1 construct": "purchased MBL Company, Beijing, China CY-8150", "assay": "PCSK9-LDLR in vitro binding assay (inhibitory rate)", "details": "in vitro", "experimental": "Polypeptide PCSK9_1-14 (SEQ ID NOs: 210-223) is dissolved in pure water or DMSO. 85 μL reaction buffer, 5 μL 1 mM polypeptide sample and 10 μL 750 ng/mL PCSK9 protein was pre-incubated at room temperature for 20 minutes before being added to a 96 well plate. The OD450/540 nm value was measured according to the instructions of the PCSK9-LDLR in Vitro Binding Assay Kit (CY-8150, MBL Company, Beijing, China). Solvent control: replace polypeptide with 5 μL solvent. In 100 μL reaction system, the final concentration of the polypeptide and PCSK9 is 50 μM and 75 ng/mL, respectively.\nInhibition rate of polypeptide (%)=(OD450/540 nm(solvent control)−OD450/540 nm (sample))/OD450/540 nm(solvent control)×100"}, "[3]": {"system": "P407-induced hyperlipidemia mice", "assay": "Subcutaneous injection of PCSK9 inhibitory peptide, serum total cholesterol in P407-induced hyperlipidemia mice", "assay_type": "in vivo, mouse", "details": "serum, subcutaneous 2 μmol/kg, mean ± sd", "experimental": "The experimental peptide sample was prepared using PEG400 with a final concentration of […], and the final concentration of PEG400 is 20% (w/v). Normal ICR mice were fasted overnight with water ad libitum. The next day, all of the mice were randomly divided into model control group (Con) and polypeptide administration group (2 μmol/kg) according to body weight. Then, all of the mice were intraperitoneally injected with P407 (500 mg/kg) and fed with feed 2 hours later. Six mice were taken as a normal control group (Nor). After 24 hours, the mice in Con were subcutaneously injected with saline containing 20% PEG400, and the mice in the treatment group were given peptides. Then, the blood was taken at different time points after administration to determine the serum total cholesterol (TC) level. In consideration of the complexity of factors affecting serum LDL-C levels, especially the differences between single and long-term administration, the in vivo activity of PCSK9 inhibitory peptide is mainly observed for changes in serum TC levels."}}, "note": "Bridge positions count the residues as written; N and C are the ends. Ends that are not written are not given here.", "data": [{"substance": "Ac-Cys-Gly-Arg-Ala-Thr-Lys-Ser-Ile-Pro-Pro-Ile-Cys-Phe-Gly-Gly-Ile-Pro-Ile-Gly-Gly-His-Ala-Glu-Gly-Thr-Phe-Thr-Ser-Asp-Val-Ser-Ser-Tyr-Leu-Glu-Gly-Gln-Ala-Ala-Lys-Glu-Phe-Ile-Ala-Trp-Leu-Val-Lys-Gly-Arg-Gly-Gly-Lys-NH2 (Ac-CGRATKSIPPICFGGIPIGGHAEGTFTSDVSSYLEGQAAKEFIAWLVKGRGGK-NH2; disulfide 1-12 (inferred)) [Acetylated and Amidated SEQ ID NO: 198]", "values": [{"measurement": "hypoglycemic activity, subcutaneous injection (in words)", "setting": "[1]", "result": "did not show any significant differences in their hypoglycemic activity compared to the unmodified molecules"}]}, {"substance": "Ac-Gly-Ile-Pro-Ile-Gly-Gly-His-Ala-Glu-Gly-Thr-Phe-Thr-Ser-Asp-Val-Ser-Ser-Tyr-Leu-Glu-Gly-Gln-Ala-Ala-Lys-Glu-Phe-Ile-Ala-Trp-Leu-Val-Lys-Gly-Arg-Gly-Gly-Lys-Gly-Arg-Cys-Thr-Lys-Ser-Ile-Pro-Pro-Ile-Cys-Phe-Pro-NH2 (Ac-GIPIGGHAEGTFTSDVSSYLEGQAAKEFIAWLVKGRGGKGRCTKSIPPICFP-NH2; disulfide 42-50 (inferred)) [Acetylated and Amidated SEQ ID NO: 196]", "values": [{"measurement": "hypoglycemic activity, subcutaneous injection (in words)", "setting": "[1]", "result": "did not show any significant differences in their hypoglycemic activity compared to the unmodified molecules"}]}, {"substance": "Thr-Val-Phe-Thr-Ser-Trp-Glu-Glu-Ala-Leu-Asp-Trp-Val-Gly-Ile-Cys-Thr-Ala-Ser-Ile-Pro-Pro-Ile-Cys-Gln (TVFTSWEEALDWVGICTASIPPICQ-OH; disulfide 16-24 (inferred)) [PCSK9_2EC]", "values": [{"measurement": "inhibitory activity on the interaction between PCSK9 and LDLR (in words)", "setting": "[2]", "result": "good inhibitory activity on the interaction between PCSK9 and LDLR"}, {"measurement": "inhibitory activity on the interaction between PCSK9 and LDLR (in words)", "setting": "[2]; listed as SEQ ID NO: 225", "result": "good inhibitory effects in vitro"}, {"measurement": "TC 15 min", "setting": "[3]; 15 min after administration", "result": "2954 ± 455", "unit": "µg/mL"}, {"measurement": "TC 30 min", "setting": "[3]; 30 min after administration", "result": "2859 ± 535", "unit": "µg/mL"}, {"measurement": "TC 60 min", "setting": "[3]; 60 min after administration", "result": "2853 ± 487", "unit": "µg/mL"}, {"measurement": "TC 90 min", "setting": "[3]; 90 min after administration", "result": "2757 ± 475", "unit": "µg/mL"}]}]}
